Experimental data taken from patent US8946201B2, “Methods for inhibiting TGF-β” (Saint Louis University, priority 2007, dated 2015).
“Also recorded” adds a separate entry of the source.

Experiments:
[1] = test system: Mv1Lu cells; assay: [Methyl-3H]thymidine incorporation (DNA synthesis), Mv1Lu cells; assay type: cell-based, mink
Description: (A, B, C, D, E, F) Cells were treated with 50 μg/ml cholesterol (A, B, C, D) and 50 μg/ml LDL (D) at 37° C. for 1 hr or with 1 μM fluvastatin or lovastatin (E) or several concentrations of fluvastatin (F) at 37° C. for 16 hr and then further incubated with increasing concentrations (as indicated) of TGF-β1 (A, B, C, E) or 50 pM TGF-β1 (D,F) for 2 hr. Northern blot analysis of PAI-1 and G3PDH was performed. A representative of a total of three analyses is shown (a). The relative intensities of the transcripts were quantified with a PhosphoImager. The ratio of the relative intensities of PAI-1 and G3PDH transcripts in cells treated without TGF-β1 and cholesterol, LDL or statins on the blot was taken as 1 fold or 100% of PAI-1 expression. The quantitative data from three independent analyses is shown (b). […] (G) Mv1Lu cells stably expressing a luciferase reporter gene driven by the PAI-1 promoter (MLECs-clone 32) were treated with increasing concentrations (as indicated) of cholesterol at 37 EC for 1 hr (a) or with 1 μM lovastatin at 37° C. for 16 hr (b) and then further incubated with 50 pM TGF-β for 7 hr. The luciferase activity in cells treated without cholesterol was taken as 100% (a). […] (H) Cells were incubated with 0.0625 and 0.125 pM TGF-β1 in the presence of increasing concentrations of cholesterol, as indicated. After 18 hr at 37° C., cell growth was determined by measurement of [^3H-methyl]thymidine incorporation into cellular DNA (a). The [^3H-methyl]thymidine incorporation in cells treated with vehicle only (T1); with TGF-β1 (T2); with cholesterol (T3); with cholesterol and TGF-β1 (T4) was measured. T1 was taken as 100%. The degree (%) of cholesterol-mediated reversal of TGF-β1 growth inhibition was estimated by the equation: % reversal=[1−(T3−T4/T1−T2)]×100 Cholesterol appeared to reverse TGF-β1 growth inhibition in a dose-dependent manner (b). The experiments were carried out in triplicate.
The growth of cholesterol-treated cells was determined by measurement of [methyl-^3H]thymidine incorporation into cellular DNA as described (30). Briefly, cells grown near confluence on 48-well clustered dishes were treated with several concentrations of cholesterol at 37° C. for 1 hr in serum-free DMEM. The final concentration of ethanol (the vehicle for cholesterol) in the medium was 0.2%. […] The [methyl-^3H]thymidine incorporation into cellular DNA was then determined by incubation of cells with [methyl-^3H]thymidine at 37° C. for 2 hr in DMEM containing 0.1% fetal calf serum. […]
Another prominent biological activity of TGF-β is growth inhibition of many different cell types. […] DNA synthesis was then determined by measurement of [^3H-methyl]thymidine incorporation into cellular DNA (FIG. 2Ha). […]

[2] = test system: pig burn wounds; assay: Pig skin burn injury model: wound healing and scar; assay type: in vivo; settings: topical; for wound closure / open wound: post-burn day 38
Description: FIG. 6. Wound closure and scar formation in pig burn wounds treated with cholesterol (CHO). Burn wounds treated with 0.025% cholesterol (A,B) and 0.00625% cholesterol (E,F) and vehicle only (C,D) were photographed immediately after burn injury (A,C,E) and at postburn day 38 (B,D,F). After burn injury, necrosis was present (white) (A,C,E).
Four pigs weighing 20-25 kg were anesthetized by intramuscular injection of ketamine (5 mg/kg), strenil (cazaporonum) (20 mg/kg) and atropine ([…]). Six uniform burn wounds (110° C., 30 sec) were then made symmetrically on the back of each pig using a modified soldering iron with a flat contact area of ˜20 cm^2. […] After wounding, IntraSite gels containing TGF-β antagonist and buffer vehicle (as control) were applied to the pig burn wounds. The burn wound received no topical gel treatment was also used as the other control. All wounds were dressed with paraffin gauze. TGF-β antagonist gel and control gel were applied to the wounds every two days for the first 10 days and twice a week for the next 30 days. All wounds were cleaned and measured prior to each application of the IntraSite gel.
Wound healing was assessed by evaluating the rates of wound re-epithelialization and contraction. The open wound area and the area enclosed by the normal hair bearing skin were measured using the macrophotography technique. The healing rate was monitored every two days for the first 10 days and twice a week for 30 more days. Wound re-epithelialization or contraction as a percent of the original wound size was calculated as described previously.
The volumes of scar were estimated by multiplying their thickness by the size of the scar on post-burn day 41 in pigs and on post-excision day 10 in rabbits.
These include: 1) Cholesterol treatment of cells suppresses TGF-β-induced cellular responsiveness including TGF-β induced Smad2 phosphorylation and nuclear translocation and TGF-β-induced expression of plasminogen activator inhibitor-1 (PAI-1). PAI-1 gene expression has commonly been used as an indicator of TGF-β-induced cellular responsiveness and PAI-1 is involved in inhibiting degradation of ECM proteins. And 2) Cholesterol treatment reverses TGF-β-induced growth inhibition in Mv1Lu cells. Since TGF-β negatively regulates normal wound healing and mediates skin fibrosis and scarring, we decided to test the effect of cholesterol on wound healing and scar formation in a pig skin burn injury model. Six thermal burns (110° C., 30 sec.; ˜20 cm^2, three on each side) were created on the back on each pig (20 kg, female). After wounding, two lesions were treated with a thin-layer of gel containing 0.025% cholesterol; two received gel containing 0.006% cholesterol and two received gel containing vehicle only. Cholesterol and cholesterol gels were applied every 2 days for the first 10 days and twice a week for the nest 30 days at which time re-epithelialization was measured and photographed. […] The volumes of the scar tissue in wound treated with 0.025% and 0.00625% cholesterol were 0.01 and 0.20±0.04 cm^3, respectively. The volume of the scar tissue in wounds treated with vehicle only was 0.45±0.03 cm^3.

In the case of CC(C)CCC[C@@H](C)[C@H]1CC[C@H]2[C@@H]3CC=C4C[C@@H](O)CC[C@]4(C)[C@H]3CC[C@]12C [cholesterol], the “reversal of DNA synthesis inhibition induced by TGF-β1” value ([1]; 8 μg/ml, 0.0625 and 0.125 pM TGF-β1, 18 hr) is reported as “almost completely reversed”, the “effect on DNA synthesis, alone” value ([1]; 6 and 8 μg/ml, without TGF-β1) is reported as “inhibited” and the “volume of the scar tissue” value ([2]; 0.00625% cholesterol gel) is reported as 0.20±0.04 cm^3. The “wound closure / open wound” value ([2]; 0.00625% cholesterol gel) was “no and almost complete”, the surface of wounds ([2]; 0.025% cholesterol gel) was “very smooth without apparent scar” and the “volume of the scar tissue” value ([2]; 0.025% cholesterol gel) was 0.01 cm^3. For the same molecule, the “wound closure / open wound” value ([2]; 0.025% cholesterol gel) was “very little open wound; also recorded: complete”.
